# Test results from publication PMC6983213, “Combining Chalcones with Donepezil to Inhibit Both Cholinesterases and Aβ Fibril Assembly” (Molecules, 2019).
# “Also recorded” adds a separate entry of the source. Read-outs that look alike come from different tables or passages of the source.
# Experiments:
# [1] = molecular target: T1, N-biotinyl-Aβ(1–42) (bioAβ42) oligomer assembly (Homo sapiens, UniProt P05067); assay: biochemical; conditions: for bioAβ42 oligomer assembly inhibition (in words): 1.56 to 50 μM, alone or in 1:1 / 1:1:1 mixtures; for EC50: concentration range 50 to 1.56 μM, duplicate, n = 3 independent experiments, ± SDEV
# T1 construct: N-biotinyl Aβ(1–42) (bioAβ42) was purchased from Anaspec; purchased Anaspec (Fremont, CA, USA) AS-23523-05
# T1 sequence (P05067 672-713): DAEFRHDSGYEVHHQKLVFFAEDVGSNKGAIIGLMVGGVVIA
# Procedure: We first examined the effect of the synthesized 1,3- and 1,4-chalcone-donepezil hybrids 15a–15f and 16a–16f on the assembly of N-biotinyl-Aβ(1–42) (bioAβ42) monomers into oligomers. We quantified the assembly of bioAβ42 into soluble oligomers by using an ELISA assay in which the soluble oligomers were captured on NeutrAvidin^TM-coated ELISA plates and detected with streptavidin-horseradish peroxidase and colorimetric readout (Figure 3).
# The plates were then stored in their blocked form at 4 °C prior to use for the oligomer assembly and dissociation assays.
# The assembly of bioAβ42 into soluble oligomers was quantified with an ELISA assay in which the soluble oligomers were captured with the NeutrAvidin^TM coating the ELISA plates. The bound oligomers were detected with streptavidin-horseradish peroxidase (SA-HRP). […] Below, please find the details of the three steps (Steps 1–3) used for the oligomer assembly assay.
# Step 1: Preparation of monomeric bioAβ42. For a low background, it was essential to rigorously pretreat the bioAβ42 peptide to convert (disaggregate) the multimeric species that form upon storage in the solid state, or even frozen in 1,1,1,3,3,3-hexafluoroisopropanol (HFIP) to monomers. The required amount of stock bioAβ42 peptide (0.5 mg dissolved at 1 mg/mL in HFIP) was pipetted into a polypropylene microfuge tube, dried to a thin film under a gentle air or N2 stream, and then disaggregated for 10 min at rt in neat trifluoroacetic acid (TFA). After removal of the TFA by drying with an air or N2 stream, DMSO was added to produce a 2.3 μg/mL (50×) stock solution.
# Step 2: Assembly of bioAβ42 oligomers. 2 μL of disaggregated monomeric 50× bioAβ42 peptide in DMSO (prepared in Step 1) was pipetted into the bottom of each well of a polypropylene 96-well plate. […] The 96-well plate was sealed and incubated at rt for 30 min without shaking. The bioAβ42 oligomer assembly was stopped by adding 50 μL of 0.3% Tween 20 v/v in distilled H2O.
# Step 3: Measurement of bioAβ42 oligomers. […] The 96-well plate was then sealed and incubated for 2 h while shaking at 150 rpm at rt. […] The plate was sealed and incubated for 1 h while shaking at 150 rpm at rt. The plate was washed as previously described, and 100 μL/well of HRP substrate (i.e., 1 mM:0.07 mM/tetramethylbenzidine:H2O2) in 0.2 M citrate buffer, pH 4.0 was added. The plate was incubated at rt for 5 to 10 min and the reaction was stopped by the addition of 100 μL/well of 1% v/v H2SO4. The absorbance of each well was read at 450 nm with a BioTek HT Synergy plate reader.
# (§1) The effects of various chalcones, donepezil, donepezil analogue, and 1,3-chalcone-donepezil hybrids were tested for their ability to inhibit the bioAβ42 oligomer assembly and dissociation either alone or in combination with each other. The experiments were performed as described in the biotinyl-Aβ(1–42) (bioAβ42) oligomer assembly and dissociation assays section.
# [2] = molecular target: EeAChE (AChE from Electrophorus electricus) (Electrophorus electricus, UniProt O42275); assay: biochemical; conditions: for IC50: Ellman's method, pH 8.0, 25 °C, triplicate, ± SDEV, read-out: Inhibition (IC50) of EeAChE; for selectivity index (SI): based on IC50 values against EeAChE and EfBChE
# Chain of EeAChE (AChE from Electrophorus electricus) (O42275 24-633): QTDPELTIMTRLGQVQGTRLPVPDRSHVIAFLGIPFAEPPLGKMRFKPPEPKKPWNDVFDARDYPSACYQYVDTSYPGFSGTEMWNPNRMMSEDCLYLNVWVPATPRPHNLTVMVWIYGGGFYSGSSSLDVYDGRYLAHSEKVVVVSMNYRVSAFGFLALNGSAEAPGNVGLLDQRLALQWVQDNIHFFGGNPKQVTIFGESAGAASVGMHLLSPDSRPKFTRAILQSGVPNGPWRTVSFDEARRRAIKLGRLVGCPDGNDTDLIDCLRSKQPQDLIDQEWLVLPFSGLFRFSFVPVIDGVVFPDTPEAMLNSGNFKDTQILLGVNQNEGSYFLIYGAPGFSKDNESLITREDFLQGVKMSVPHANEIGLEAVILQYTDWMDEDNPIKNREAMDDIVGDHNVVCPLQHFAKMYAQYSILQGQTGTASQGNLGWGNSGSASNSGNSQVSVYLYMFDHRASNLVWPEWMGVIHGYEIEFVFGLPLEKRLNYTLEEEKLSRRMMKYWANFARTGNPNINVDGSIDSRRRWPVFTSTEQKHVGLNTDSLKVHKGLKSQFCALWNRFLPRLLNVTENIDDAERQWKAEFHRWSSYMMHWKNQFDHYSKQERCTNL
# Procedure: (§2) The ChE inhibition assays were performed as previously described. The 1,3- and 1,4-chalcone-donepezil hybrids (0.1 nM to 100 μM) were dissolved in sodium phosphate buffer ((100 μL), 0.1 M, pH 8.0). […] All assays were performed in triplicate. The data was plotted as a sigmoidal curve and IC50 values were calculated using SigmaPlot 14.0 (Systat Software, San Jose, CA, USA).
# [3] = molecular target: EfBChE (BChE from Equus ferus) (Equus caballus, UniProt P81908); assay: biochemical; type: biochemical; conditions: for IC50: Ellman's method, pH 8.0, 25 °C, triplicate, ± SDEV, read-out: Inhibition (IC50) of EfBChE; for inhibition of EfBChE better than that of EeAChE: from IC50 values
# Chain of EfBChE (BChE from Equus ferus) (P81908 whole entry): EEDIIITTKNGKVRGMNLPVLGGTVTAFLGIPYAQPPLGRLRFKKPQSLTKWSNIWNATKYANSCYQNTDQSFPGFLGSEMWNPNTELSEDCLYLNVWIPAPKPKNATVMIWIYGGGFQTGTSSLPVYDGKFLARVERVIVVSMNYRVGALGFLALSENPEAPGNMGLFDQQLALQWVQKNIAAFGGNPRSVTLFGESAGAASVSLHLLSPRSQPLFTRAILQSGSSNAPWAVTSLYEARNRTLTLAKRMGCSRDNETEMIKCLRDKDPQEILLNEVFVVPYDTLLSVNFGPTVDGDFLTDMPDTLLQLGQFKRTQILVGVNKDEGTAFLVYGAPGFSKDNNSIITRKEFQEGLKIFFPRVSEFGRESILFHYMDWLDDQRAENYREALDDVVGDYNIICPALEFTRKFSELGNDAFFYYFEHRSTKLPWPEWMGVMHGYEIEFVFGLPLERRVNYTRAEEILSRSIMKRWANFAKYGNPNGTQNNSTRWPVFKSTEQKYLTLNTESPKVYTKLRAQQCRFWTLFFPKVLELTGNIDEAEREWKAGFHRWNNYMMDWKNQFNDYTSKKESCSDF
# Procedure: as §2
# [4] = tested on: ADPBC (Alzheimer's disease PIB binding complex); assay: 3H-PIB binding competition/titration, ADPBC; parameters: species or system Human; conditions: compounds at 10 μM (titration 10 to 0.03 μM); 1.2 nM 3H-PIB
# Procedure: Human AD brain frontal cortical tissue (from the Sanders-Brown Center on Aging Alzheimer’s Disease Center Brain Bank at the University of Kentucky) was processed as follows.
# (§3) The plates were sealed and incubated for 3 h at 22 °C, without shaking, and transferred to a 96-well Millipore Multiscreen HTS Hi Flow FB (GF/B) filter plate, and filtered with a multi-well plate vacuum manifold (Millipore Corporation, Bedford, MA, USA). […] Specific binding of ^3H-PIB was determined by subtracting the non-specific binding determined in the presence of 1 μM BTA-1.
# (§4) The titration of compounds with ^3H-PIB bound to Aβ(1–40) and Aβ(1–42) fibrils and AD brain extract (ADPBC) were performed to further determine the competition of our compounds for the ^3H-PIB binding site of the AD brain. The experiments were performed as described in the ^3H-PIB binding assays of Section 3.4.3 with the use of a concentration range of 10 to 0.03 μM for the compounds tested.
# F42 = Aβ(1–42) fibrils = molecular target: T2, F42 = Aβ(1–42) fibrils (Homo sapiens, UniProt P05067); assay: 3H-PIB binding competition/titration, Aβ(1–42) fibrils; conditions: compounds at 10 μM (titration 10 to 0.03 μM); 1.2 nM 3H-PIB
# T2 construct: Aβ(1–42) (cat # A-1167-02) purchased from rPeptide; purchased rPeptide (Watkinsville, GA, USA) A-1167-02
# T2 sequence (P05067 672-713): as the sequence (P05067 672-713) above
# Procedure: (§5) Prior to being transferred to screw-top polypropylene vials and being stored at −75 °C, these 1 mg/mL fibril suspensions were further diluted with an equal volume of the buffer solution.
# as §3, §4
# F40 = Aβ(1–40) fibrils = molecular target: T3, F40 = Aβ(1–40) fibrils (Homo sapiens, UniProt P05067); assay: 3H-PIB binding competition/titration, Aβ(1–40) fibrils; conditions: compounds at 10 μM (titration 10 to 0.03 μM); 1.2 nM 3H-PIB
# T3 construct: lyophilized NH4OH-treated Aβ(1–40) (cat # A-1157-02); purchased rPeptide (Watkinsville, GA, USA) A-1157-02
# T3 sequence (P05067 672-711): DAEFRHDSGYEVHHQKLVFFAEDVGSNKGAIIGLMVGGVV
# Procedure: as §5, §3, §4
# [5] = molecular target: T4, preformed bioAβ42 oligomers (Homo sapiens, UniProt P05067); assay: bioAβ42 oligomer dissociation assay (NeutrAvidin ELISA); type: biochemical; conditions: 0.01 to 50 μM; ~18 h; alone or in 1:1 / 1:1:1 mixtures
# T4 construct: N-biotinyl Aβ(1–42) (bioAβ42) was purchased from Anaspec; purchased Anaspec (Fremont, CA, USA) AS-23523-05
# T4 sequence (P05067 672-713): as the sequence (P05067 672-713) above
# Procedure: Dissociation of preformed oligomers of bioAβ42 was measured by pretreating biotinylated oligomers with solvent controls or compounds for a period of time, capturing them with NeutrAvidin^TM on ELISA plates, and detecting the remaining bound oligomers with SA-HRP [77] as described above. Below, please find the details of the two steps (Steps 1 and 2) used for the oligomer dissociation assay.
# Step 1: Preformed bioAβ42 oligomers (sufficient for 400 wells). In total, 1 μg of bioAβ42 peptide (1 mg/mL dissolved in HFIP) was pipetted into 20 μL of HFIP in a polypropylene microfuge tube, and dried to a thin film under a gentle air or N2 stream. The film was dissolved in 250 μL of DMSO and vortexed. […] After incubation at rt for 1 h with intermittent vortexing, 0.375 mL of 100 mM Tween 20 (10% v/v) in distilled H2O was added to make the final Tween 20 concentration 0.3% v/v. The preformed oligomers were mixed by inversion and aliquoted for storage at −75 °C. Note: Multiple freeze-thaw cycles should be avoided.
# Step 2: Oligomer dissociation assay. […] Then, 25 μL of the preformed bio42 oligomers adjusted to 0.6% v/v Tween 20 was pipetted into each well of a polypropylene 96-well plate. […] The plates were sealed and shaken at 150 rpm overnight at rt. After 18 h of incubation, the plates were centrifuged at 1000× g for 10 min and a 100-μL aliquot was transferred from each well into a well of an NA-coated ELISA plate that had been blocked with Tween 20. The oligomer content of that aliquot was measured as described for the bioAβ42 oligomer assembly assay.
# as §1
# [6] = EC50 against bioAβ42 oligomer assembly
# [7] = read-out: EC50 against bioAβ42 oligomer assembly
SMILES,bioAβ42 oligomer assembly inhibition (in words) [1],"EC50 [1, 6] [nM]",IC50 [2] [nM],selectivity index (SI) [2],IC50 [3] [nM],inhibition of EfBChE better than that of EeAChE [3] [fold],displacement of 3H-PIB from ADPBC (in words) [4],displacement of 3H-PIB from F42 (in words) (F42 = Aβ(1–42) fibrils),displacement of 3H-PIB from F40 (in words) (F40 = Aβ(1–40) fibrils),"EC50 [1, 7] [nM]",dissociation of preformed bioAβ42 oligomers (in words) [5]
"COc1cc2c(cc1OCCOc1cccc(C(=O)/C=C/c3ccc(N(C)C)cc3)c1)C(=O)C(CC1CCN(Cc3ccccc3)CC1)C2 (centres unmarked) [15a, (E)-2-((1-Benzylpiperidin-4-Yl)Methyl)-6-(2-(3-(3-(4-(Dimethylamino)Phenyl)Acryloyl)Phenoxy)Ethoxy)-5-Methoxy-2,3-Dihydro-1H-Inden-1-One]",successful in preventing the self-assembly of bioAβ42; also recorded: better inhibition of bioAβ42 oligomer assembly,4830 ± 470,1020 ± 330,0.02,20 ± 2,51,"better binding to F40, F42, and ADPBC than 15c, 15d, 15e, and 15f","better binding to F40, F42, and ADPBC than 15c, 15d, 15e, and 15f","better binding to F40, F42, and ADPBC than 15c, 15d, 15e, and 15f",–,–
"COc1cc2c(cc1OCCCCOc1cccc(C(=O)/C=C/c3ccc(N(C)C)cc3)c1)C(=O)C(CC1CCN(Cc3ccccc3)CC1)C2 (centres unmarked) [15b, (E)-2-((1-Benzylpiperidin-4-Yl)Methyl)-6-(4-(3-(3-(4-(Dimethylamino)Phenyl)Acryloyl)Phenoxy)Butoxy)-5-Methoxy-2,3-Dihydro-1H-Inden-1-One]",better inhibition of bioAβ42 oligomer assembly,–,650 ± 140,0.05,30 ± 10,22,"better binding to F40, F42, and ADPBC than 15c, 15d, 15e, and 15f","better binding to F40, F42, and ADPBC than 15c, 15d, 15e, and 15f","better binding to F40, F42, and ADPBC than 15c, 15d, 15e, and 15f",4100 ± 170,–
"COc1cc2c(cc1OCCOc1ccc(C(=O)/C=C/c3ccc(N(C)C)cc3)cc1)C(=O)C(CC1CCN(Cc3ccccc3)CC1)C2 (centres unmarked) [16a, (E)-2-((1-Benzylpiperidin-4-Yl)Methyl)-6-(2-(4-(3-(4-(Dimethylamino)Phenyl)Acryloyl)Phenoxy)Ethoxy)-5-Methoxy-2,3-Dihydro-1H-Inden-1-One]",better inhibition of bioAβ42 oligomer assembly,9370 ± 2100,70 ± 10,≈1.4,~100,–,–,"better affinity for F40 and F42 than 16b, 16c, 16d, 16e, and 16f","better affinity for F40 and F42 than 16b, 16c, 16d, 16e, and 16f",–,–
"CN(C)c1ccc(/C=C/C(=O)c2cccc(O)c2)cc1 [compound 3, (E)-3-(4-(Dimethylamino)Phenyl)-1-(3-Hydroxyphenyl)Prop-2-En-1-One]",did not inhibit bioAβ42 assembly,–,–,–,–,–,–,–,–,> 50000,did not dissociate the preformed oligomers
"CN(C)c1ccc(/C=C/C(=O)c2cccc(OCCO)c2)cc1 [compound 17, (E)-3-(4-(Dimethylamino)Phenyl)-1-(3-(2-Hydroxyethoxy)Phenyl)Prop-2-En-1-One]",did not inhibit bioAβ42 assembly,–,–,–,–,–,–,–,–,–,did not dissociate the preformed oligomers
"COc1cc2c(cc1OCCO)C(=O)C(CC1CCN(Cc3ccccc3)CC1)C2 (centres unmarked) [compound 20, 2-((1-Benzylpiperidin-4-Yl)Methyl)-6-(2-Hydroxyethoxy)-5-Methoxy-2,3-Dihydro-1H-Inden-1-One]",did not inhibit bioAβ42 assembly,–,–,–,–,–,–,–,–,–,did not dissociate the preformed oligomers
